Legend:
Assay type in all cases: in vivo
[1] = system: ragweed (common ragweed, Ambrosia elatior); test: Test A preemergence; conditions: Ambrosia artemisiifolia, pre-emergence, 240 h; for pest or weed control at 125 g/ha: 125 g ai/ha, preemergence, 0 to 100 scale where 0 is no effect and 100 is complete control, read-out: Ragweed plant response rating; for pest or weed control at 500 g/ha: 500 g ai/ha, Preemergence, visual injury vs untreated controls after approximately 10 d, read-out: Ragweed plant response rating (0 to 100 scale where 0 is no effect and 100 is complete control)
Procedure, shortened: (§1)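 Visual injury, scored on a 0–100 scale relative to untreated controls, was recorded about 10 d after application. Treatments were a preemergence soil spray over planted seeds or a postemergence spray on plants at the one- to two-leaf stage, 2 to 10 cm tall, all in loam soil–sand blend in the greenhouse.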

[2] = system: Galium (catchweed bedstraw, Galium aparine); test: Test A postemergence; conditions: Galium, post-emergence, 240 h, 125 g ai/ha, postemergence, visual injury rating after approximately 10 d; read-out: Galium plant response rating (0 to 100 scale, 0 no effect, 100 complete control)
Procedure, shortened: as §1

Kochia (Kochia scoparia) = test: Test A postemergence; conditions: Bassia scoparia, post-emergence, 240 h, 125 g ai/ha, postemergence, visual injury rating after approximately 10 d; read-out: Kochia plant response rating (0 to 100 scale, 0 no effect, 100 complete control)
Procedure, shortened: as §1

[3] = system: barnyardgrass (Echinochloa crus-galli); test: Test A postemergence; conditions: Echinochloa crus-galli, post-emergence, 240 h, 125 g ai/ha, postemergence, visual injury rating after approximately 10 d; read-out: Barnyardgrass plant response rating (0 to 100 scale, 0 no effect, 100 complete control)
Procedure, shortened: as §1

[4] = system: blackgrass (Alopecurus myosuroides); test: Test A postemergence; conditions: Alopecurus myosuroides, post-emergence, 240 h, 125 g ai/ha, postemergence, visual injury rating after approximately 10 d; read-out: Blackgrass plant response rating (0 to 100 scale, 0 no effect, 100 complete control)
Procedure, shortened: as §1

corn (Zea mays) = test: Test A postemergence; conditions: Zea mays, post-emergence, 240 h, 125 g ai/ha, postemergence, visual injury rating after approximately 10 d; read-out: Corn plant response rating (0 to 100 scale, 0 no effect, 100 complete control)
Procedure, shortened: as §1

[5] = system: giant foxtail (Setaria faberii); test: Test A postemergence; conditions: Setaria faberi, post-emergence, 240 h, 125 g ai/ha, postemergence, visual injury rating after approximately 10 d; read-out: Foxtail, Giant plant response rating (0 to 100 scale, 0 no effect, 100 complete control)
Procedure, shortened: as §1

[6] = system: pigweed (Amaranthus retroflexus); test: Test A postemergence; conditions: Amaranthus retroflexus, post-emergence, 240 h, 125 g ai/ha, postemergence, visual injury rating after approximately 10 d; read-out: Pigweed plant response rating (0 to 100 scale, 0 no effect, 100 complete control)
Procedure, shortened: as §1

[7] = system: ragweed (common ragweed, Ambrosia elatior); test: Test A postemergence; conditions: Ambrosia artemisiifolia, post-emergence, 240 h, 125 g ai/ha, postemergence, visual injury rating after approximately 10 d; read-out: Ragweed plant response rating (0 to 100 scale, 0 no effect, 100 complete control)
Procedure, shortened: as §1

[8] = system: ryegrass, Italian (Italian ryegrass, Lolium multiflorum); test: Test A postemergence; conditions: Lolium multiflorum, post-emergence, 240 h, 125 g ai/ha, postemergence, visual injury rating after approximately 10 d; read-out: Ryegrass, Italian plant response rating (0 to 100 scale, 0 no effect, 100 complete control)
Procedure, shortened: as §1

[9] = system: wheat (Triticum aestivum); test: Test A postemergence; conditions: Triticum aestivum, post-emergence, 240 h, 125 g ai/ha, postemergence, visual injury rating after approximately 10 d; read-out: Wheat plant response rating (0 to 100 scale, 0 no effect, 100 complete control)
Procedure, shortened: as §1

[10] = system: barnyardgrass (Echinochloa crus-galli); test: Test B flooded paddy test; conditions: Echinochloa crus-galli, Flood, 250 g ai/ha; scale of 0 to 100 where 0 is no effect and 100 is complete control; read-out: Barnyardgrass plant response rating
Procedure, shortened: (§2)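 Response scored visually against untreated controls, 0 = no effect and 100 = complete control, 13–15 d after treatment in the greenhouse. Compounds added to paddy water held 3 cm above soil surface. Treatment given at 2-leaf stage.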

[11] = system: ducksalad (Heteranthera limosa); test: Test B flooded paddy test; conditions: Heteranthera limosa, Flood, 250 g ai/ha; scale of 0 to 100 where 0 is no effect and 100 is complete control; read-out: Ducksalad plant response rating
Procedure, shortened: as §2

rice (Oryra sativa) = test: Test B flooded paddy test; conditions: Oryza sativa, Flood, 250 g ai/ha; scale of 0 to 100 where 0 is no effect and 100 is complete control; read-out: Rice plant response rating
Procedure, shortened: as §2

[12] = system: sedge, umbrella (small-flower umbrella sedge, Cyperus difformis); test: Test B flooded paddy test; conditions: Cyperus difformis, Flood, 250 g ai/ha; scale of 0 to 100 where 0 is no effect and 100 is complete control; read-out: Sedge, Umbrella plant response rating
Procedure, shortened: as §2

Row | Compound | pest or weed control at 125 g/ha [1] [%] | pest or weed control at 500 g/ha [1] [%] | pest or weed control at 125 g/ha [2] [%] | pest or weed control at 125 g/ha (Kochia (Kochia scoparia)) [%] | pest or weed control at 125 g/ha [3] [%] | pest or weed control at 125 g/ha [4] [%] | plant injury at 125 g/ha (corn (Zea mays)) [%] | pest or weed control at 125 g/ha [5] [%] | pest or weed control at 125 g/ha [6] [%] | pest or weed control at 125 g/ha [7] [%] | pest or weed control at 125 g/ha [8] [%] | plant injury at 125 g/ha [9] [%] | pest or weed control at 250 g/ha [10] [%] | pest or weed control at 250 g/ha [11] [%] | pest or weed control at 250 g/ha (rice (Oryra sativa)) [%] | pest or weed control at 250 g/ha [12] [%]
1 | Cc1cc(F)cc([C@H]2CN(C)C(=O)[C@@H]2C(=O)Nc2ccccc2F)c1 [Compound 850] | 0 | 0 | 30 | 0 | 90 | 0 | 30 | 80 | 0 | 0 | 0 | 20 | 70 | 90 | 0 | 0
2 | COc1ccc([C@H]2CN(C)C(=O)[C@@H]2C(=O)Nc2ccccc2F)cc1OC [Compound 852] | 0 | 0 | 0 | 0 | 90 | 0 | 0 | 80 | 0 | 0 | 0 | 0 | 40 | 40 | 0 | 0
3 | COc1ccc([C@H]2CN(C)C(=O)[C@@H]2C(=O)Nc2cccc(F)c2F)cc1OC [Compound 853] | 0 | 20 | 0 | 0 | 90 | 20 | 0 | 90 | 0 | 0 | 0 | 0 | 70 | 40 | 20 | 0
4 | COc1ccc([C@H]2CN(C)C(=O)[C@@H]2C(=O)Nc2ccccc2SC)cc1OC [Compound 854] | 0 | 0 | 0 | 0 | 0 | 0 | 0 | 50 | 0 | 0 | 0 | 0 | 0 | 0 | 0 | 0
5 | COc1cc([C@H]2CN(C)C(=O)[C@@H]2C(=O)Nc2cccc(F)c2F)cc(C(F)(F)F)c1 [Compound 856] | 0 | 20 | 40 | 30 | 80 | 60 | 80 | 90 | 20 | 0 | 40 | 50 | 50 | 75 | 0 | 0
6 | COc1cc(C(F)(F)F)ccc1[C@H]1CN(C)C(=O)[C@@H]1C(=O)Nc1cccc(F)c1F [Compound 859] | 0 | 50 | 50 | 20 | 80 | 30 | 50 | 80 | 20 | 0 | 20 | 20 | 65 | 100 | 0 | 0
7 | COc1cc(C(F)(F)F)ccc1[C@H]1CN(C)C(=O)[C@@H]1C(=O)Nc1ccccc1SC [Compound 860] | 0 | 50 | 20 | 0 | 30 | 0 | 0 | 60 | 0 | 0 | 0 | 20 | 0 | 90 | 0 | 0
8 | CSc1ccccc1NC(=O)[C@H]1C(=O)NC[C@@H]1c1cccc2c1OC(F)(F)O2 [Compound 865] | 0 | 0 | 0 | 0 | 0 | 0 | 0 | 0 | 0 | 0 | 0 | 0 | 0 | 60 | 30 | 30
9 | CSc1ccccc1NC(=O)[C@H]1C(=O)N(C)C[C@@H]1c1cc(F)c(F)c(F)c1 [Compound 866] | 0 | 30 | 20 | 20 | 60 | 0 | 30 | 70 | 0 | 0 | 20 | 0 | 35 | 90 | 35 | 35

Source: US12077503B2, “Substituted cyclic amides and their use as herbicides” (FMC CORPORATION, priority 2015, dated 2024)
